Values of other authors in patent US6947791B2, “Method and apparatus for electrically assisted topical delivery of agents for cosmetic applications” (Genetronics, Inc., priority 1998, dated 2005).
Like-named read-outs stand apart in the source and are kept apart here.

Test system: human dermal fibroblasts
Details: for MTT50 (amount required to kill 50% of the cells in cell culture): pH 7.5

O=C1O[C@H]([C@@H](O)CO)C([O-])=C1OP(=O)([O-])[O-].O=C1O[C@H]([C@@H](O)CO)C([O-])=C1OP(=O)([O-])[O-].[Mg+2].[Mg+2].[Mg+2] [MAP]
MTT50 (amount required to kill 50% of the cells in cell culture) (fibroblasts from person one): 75,000 ppm
MTT50 (amount required to kill 50% of the cells in cell culture) (fibroblasts from person two): higher than 100,000 ppm
cytotoxicity compared to L-ascorbic acid (fibroblasts of all ages): significantly lower cytotoxicity
